In the CheMixHub viscosity set:

Experiment: xn = mol fraction of the nth substance listed
Conditions: 101 kPa

Cc1cccc(C)c1 + C1COCCO1
Conditions | viscosity [mPa·s]
298.15 K, x2 = 0.7182 | 1.005

NCCCO + C1COCCO1
viscosity [mPa·s]
Conditions | x1 = 0.1197 | x1 = 0.2269 | x1 = 0.3332 | x1 = 0.4339 | x1 = 0.5403 | x1 = 0.6385 | x1 = 0.7328 | x1 = 0.8244 | x1 = 0.9072
298.15 K | 1.419 | 1.847 | 2.619 | 3.465 | 4.883 | 6.97 | 10.21 | 15 | 20.98
303.15 K | 1.294 | 1.654 | 2.311 | 3.05 | 4.251 | 5.966 | 8.411 | 12.14 | 16.7
308.15 K | 1.188 | 1.488 | 2.037 | 2.674 | 3.624 | 4.916 | 6.868 | 9.516 | 13.47

O=S1(=O)CCCC1 + C1COCCO1
viscosity [mPa·s]
Conditions | x1 = 0.0809 | x1 = 0.1742 | x1 = 0.2786 | x1 = 0.3855 | x1 = 0.4739 | x1 = 0.5744 | x1 = 0.6247 | x1 = 0.7169 | x1 = 0.8462 | x1 = 0.9062
303.15 K | 1.276 | 1.517 | 1.854 | 2.293 | 2.756 | 3.428 | 3.841 | 4.786 | 6.656 | 7.852
313.15 K | 1.086 | 1.284 | 1.558 | 1.912 | 2.28 | 2.809 | 3.13 | 3.861 | 5.275 | 6.164
323.15 K | 0.9369 | 1.104 | 1.332 | 1.622 | 1.922 | 2.348 | 2.605 | 3.182 | 4.278 | 4.942

O=S1(=O)CCCC1 + C1COCO1
viscosity [mPa·s]
Conditions | 303.15 K | 308.15 K | 313.15 K | 318.15 K | 323.15 K
x1 = 0.207 | 0.89 | 0.85 | 0.82 | 0.78 | 0.75
x1 = 0.43 | 1.49 | 1.39 | 1.24 | 1.21 | 1.17
x1 = 0.658 | 3.04 | 2.53 | 2.32 | 2.12 | 1.99

C1CC[NH2+]C1.CCCCCCCC(=O)[O-] + CC#N
viscosity [mPa·s]
Conditions | x1 = 0.1601 | x1 = 0.2228 | x1 = 0.2843 | x1 = 0.3982 | x1 = 0.4849 | x1 = 0.609 | x1 = 0.6946 | x1 = 0.7891 | x1 = 0.9081
293.15 K | 5.42 | 6.71 | 7.22 | 11.37 | 13.54 | 18.24 | 24.41 | 33.6 | 51.93
298.15 K | 4.61 | 6.42 | 7.9 | 9.98 | 12.08 | 16.32 | 22.17 | 30.5 | 44.73
303.15 K | 3.37 | 3.58 | 5.31 | 8.14 | 9.96 | 14.01 | 17.35 | 24.21 | 35.95
308.15 K | 2.41 | 3.39 | 5.02 | 7.88 | 9.48 | 13.07 | 15.79 | 21.95 | 30.54
313.15 K | 1.92 | 2.99 | 4.35 | 6.59 | 8.46 | 10.7 | 14.2 | 18.22 | 25.69

CCC(C)O (centres undefined) + CC#N
Conditions | viscosity [mPa·s]
293.15 K, x2 = 0.1644 | 1.655
